Source: patent US20240166726A1, “UNIVERSAL TARGETING STRATEGY TO INHIBIT REPLICATION OF ZIKV AND FLAVIVIRUSES” (Sanford Burnham Prebys Medical Discovery Institute, priority 2022, published 2024)

Experiments:
ZIKV NS2B-NS3pro [1] = target: T1, ZIKV NS2B-NS3pro (Zika virus, UniProt A0A024B7W1); test: Fluorescent proteinase activity assay (Pyr-RTKR-AMC cleavage); assay type: biochemical
T1 construct: hydrophilic cytoplasmic portion of NS2B (residues 48-94) was linked to the NS3 protease domain; was linked to the NS3 protease domain via a 9-residue linker L; His tag (N, cleaved yes); made in house; host or cells: E. coli BL21 (DE3) Codon Plus
T1 sequence (A0A024B7W1 1503-1680): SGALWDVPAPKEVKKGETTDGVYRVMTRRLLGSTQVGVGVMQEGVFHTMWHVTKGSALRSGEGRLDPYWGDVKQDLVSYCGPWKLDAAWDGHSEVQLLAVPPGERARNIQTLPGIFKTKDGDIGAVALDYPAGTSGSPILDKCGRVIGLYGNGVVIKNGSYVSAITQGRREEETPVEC
T1 sequence (A0A024B7W1 1420-1466): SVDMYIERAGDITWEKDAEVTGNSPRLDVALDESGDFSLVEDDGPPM
Method: Fluorescent proteinase activity assay and IC50 determination. The peptide cleavage activity assays with purified ZIKV NS2B-NS3pro polypeptides were performed in 0.2 ml TBS containing 20% glycerol and 0.005% Brij 35 containing 20 μM of the cleavage peptide pyroglutamic acid Pyr-Arg-Thr-Lys-Arg-7-amino-4-methylcoumarin (Pyr-RTKR-AMC) and 10 nM enzyme. The reaction velocity was monitored continuously at λex=360 nm and λem=465 nm on a Tecan fluorescence spectrophotometer (Männedorf, Switzerland). To determine the IC50 values of the inhibitory compounds, ZIKV NS2B-NS3pro constructs (20 nM) were preincubated for 30 min at 20° C. with various concentrations of compounds in 0.1 ml TBS containing 20% glycerol and 0.005% Brij 35. Pyr-RTKR-AMC substrate (20 μM) was then added in 0.1 ml of the same buffer. IC50 values were calculated by determining the compound concentration required to obtain 50% of the maximal inhibition of NS2B-NS3pro activity against Pyr-RTKR-AMC. GraphPad Prism was used as fitting software. All assays were performed in triplicate in 96-well plates.
Fluorogenic substrate cleavage assays were performed to test whether binding of RNA interferes with the proteolytic activity of NS2B-NS3pro.

WNV NS2B-NS3pro = target: T2, WNV NS2B-NS3pro (West Nile virus, UniProt P06935); test: Inhibition of NS2B-NS3pro proteolysis, WNV; assay type: biochemical; settings: in vitro
T2 construct: comprises an NS2B polypeptide that associates with a proteolytic N-terminal fragment of NS3 polypeptide (NS3pro); a proteolytic N-terminal fragment of NS3 polypeptide (NS3pro) to form NS2B-NS3pro
T2 sequence (P06935 1371-1501): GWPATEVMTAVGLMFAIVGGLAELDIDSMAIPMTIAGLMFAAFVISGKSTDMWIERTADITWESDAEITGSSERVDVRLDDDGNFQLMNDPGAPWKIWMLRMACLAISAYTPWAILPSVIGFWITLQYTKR
T2 sequence (P06935 1502-1679): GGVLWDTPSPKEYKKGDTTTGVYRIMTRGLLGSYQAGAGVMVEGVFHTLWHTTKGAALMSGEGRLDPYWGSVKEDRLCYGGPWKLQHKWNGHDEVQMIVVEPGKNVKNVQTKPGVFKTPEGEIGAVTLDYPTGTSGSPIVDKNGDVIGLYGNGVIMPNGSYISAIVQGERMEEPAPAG
From the text: (§1) The open conformation of NS2B-NS3pro is formed by rearrangement/dissociation of the NS2B cofactor from the C-terminal half of NS3pro, leading to a loss of proteolytic activity. NS2B dissociation uncovers a hydrophobic cleft in NS3pro, which presents a druggable pocket that is relatively conserved between the flaviviruses. Allosteric inhibitors of ZIKV, WNV, and DENV2 NS2B-NS3pro were designed in silico to bind a region of NS2B-NS3pro distant from the proteolytic active site. […] RNA binding to ZIKV NS2B-NS3pro was tested with a sub-library of these inhibitors, and some compounds were potent inhibitors of RNA binding to ZIKV NS2B-NS3pro, as depicted in FIG. 7. In Top of FIG. 7, small molecule allosteric inhibitors (10 μM) targeting open/super-open conformations of ZIKV NS2B-NS3pro block ssRNA binding. Fluorescent polarization (%) using FAM labeled ssRNA (20 poly-rU). * p<0.05, […], *** p<0.0005, […] by two-tailed unpaired t-test with Welch's correction. In Bottom of FIG. 7, IC50 for inhibition of ZIKV, WNV, and DENV2 NS2B-NS3pro proteolysis by the indicated inhibitors. […] NSC86314 was previously shown to inhibit WNV and DENV2 replicons in cell-based assays with IC50 values of<50 μM. […]

DENV2 NS2B-NS3pro = target: T3, DENV2 NS2B-NS3pro (Dengue virus type 2, UniProt P29990); test: Inhibition of NS2B-NS3pro proteolysis, DENV2; assay type: biochemical; settings: in vitro
T3 construct: comprises an NS2B polypeptide that associates with a proteolytic N-terminal fragment of NS3 polypeptide (NS3pro); a proteolytic N-terminal fragment of NS3 polypeptide (NS3pro) to form NS2B-NS3pro
T3 sequence (P29990 1346-1475): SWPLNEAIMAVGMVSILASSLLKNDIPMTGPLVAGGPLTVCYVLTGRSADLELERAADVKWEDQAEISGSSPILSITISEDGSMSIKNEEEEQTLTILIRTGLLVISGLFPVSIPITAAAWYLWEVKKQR
T3 sequence (P29990 1476-1653): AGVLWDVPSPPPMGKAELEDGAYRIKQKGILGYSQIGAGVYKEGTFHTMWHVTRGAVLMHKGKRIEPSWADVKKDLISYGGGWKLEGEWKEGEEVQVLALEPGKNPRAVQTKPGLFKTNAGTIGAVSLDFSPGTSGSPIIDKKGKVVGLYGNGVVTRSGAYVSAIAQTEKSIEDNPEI
From the text: as §1

WNV replicons = settings: cell-based assays, previously shown; cited from earlier work
DENV2 replicons = settings: cell-based assays, previously shown; cited from earlier work
ZIKV NS2B-NS3pro [2] = target: T1, ZIKV NS2B-NS3pro; test: Inhibition of ssRNA binding to NS2B-NS3pro by inhibitors (RNA FP assay)
From the text: The DNA constructs were cloned into pGEX6P1 plasmid using BamH1 and EcoR1 cleavage sites, resulting in fusion of a GST tag at the N-terminus of the NS2B cofactor. E. coli were transformed with the individual recombinant constructs, and protein production was induced and the cells were disrupted as described above. The supernatant fraction containing the GST-tagged constructs were loaded onto Protino Glutathione Agarose 4B beads and impurities were removed by washing with TBS. To cleave the GST tag from the viral protease, the beads were co-incubated with 3C protease. The NS2B-NS3pro constructs were then additionally purified by gel filtration on an S200 26/60 column equilibrated with TBS. Purity of the purified construct was analyzed using SDS-PAGE followed by Coomassie staining. Purified protease was concentrated to approximately 10 mg/ml using 10 kDa-cutoff concentrators, flash frozen in small aliquots, and stored at −80° C. […]
Fluorescence polarization assay of RNA/ssDNA binding to ZIKV NS2B-NS3 protease. Binding between purified recombinant ZIKV NS2B-NS3pro constructs and either RNA or ssDNA was assessed using a fluorescence polarization (FP) assay conducted in 0.1 ml of TBS containing 1 mM MgCl2 at 25° C. for 1 h. […] Polarization was monitored on a Bruker Daltonics fluorescence spectrophotometer. […]

## Nc1cc(N)c(N=Nc2ccc(S(=O)(=O)Nc3nccs3)cc2)cc1N=Nc1ccc(S(=O)(=O)Nc2nccs2)cc1 [NSC86314]
ZIKV NS2B-NS3pro [1]; in vitro
  IC50, NS2B-NS3pro from ZIKV: low to sub-micromolar
WNV NS2B-NS3pro
  IC50, NS2B-NS3pro from WNV: low to sub-micromolar
DENV2 NS2B-NS3pro
  IC50, NS2B-NS3pro from DENV: low to sub-micromolar
WNV replicons
  IC50: < 50 µM
DENV2 replicons
  IC50: < 50 µM

## O=C(O)c1cc(/N=N/c2ccc(S(=O)(=O)Nc3nccs3)cc2)ccc1O [NSC114428]
ZIKV NS2B-NS3pro [1]; FIG. 7
  Inhibition of proteolytic activity of ZIKV protease: low μM range
ZIKV NS2B-NS3pro [2]; FIG. 7
  Inhibition of RNA binding: low μM range

## aprotinin
ZIKV NS2B-NS3pro [2]; closed conformation induced by substrate-mimicking inhibitor
  RNA binding to purified NS2B-NS3pro-inhibitor complex: no RNA binding
